This assay has as its target T1, human DGAT2 (Homo sapiens, UniProt Q96PD7).
T1 construct: made in house; host or cells: Sf-9 insect cells (baculovirus), membrane fraction
T1 sequence (Q96PD7 1-388): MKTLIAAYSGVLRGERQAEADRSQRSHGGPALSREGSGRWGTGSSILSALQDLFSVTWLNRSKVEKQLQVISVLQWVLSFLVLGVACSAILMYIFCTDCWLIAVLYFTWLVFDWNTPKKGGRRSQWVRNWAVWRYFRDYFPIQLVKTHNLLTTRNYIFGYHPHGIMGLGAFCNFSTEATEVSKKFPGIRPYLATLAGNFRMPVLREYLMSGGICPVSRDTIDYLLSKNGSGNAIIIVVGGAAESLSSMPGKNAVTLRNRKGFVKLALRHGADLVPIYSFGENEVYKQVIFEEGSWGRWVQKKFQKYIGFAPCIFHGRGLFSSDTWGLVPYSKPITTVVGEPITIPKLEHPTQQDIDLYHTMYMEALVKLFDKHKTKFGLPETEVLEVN
Description: DGAT2 Enzymatic Activity Assay. The class given is biochemical. The following applies: membrane prep of Sf-9 insect cells expressing hDGAT2; 13C18-triolein product by LC/MS/MS; 25 μM diolein, 5 μM 13C oleoyl-CoA. Summed up: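 Membrane fractions from Sf-9 cells expressing untagged human DGAT2 (baculovirus, 48 h) used as enzyme; reaction run at rt. Product ^13C18-triolein quantified by LC/MS/MS (positive HESI, C4 column) against ^13C21-triolein internal standard after liquid-liquid extraction; % inhibition versus high/low controls and IC50 derived.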
In the case of `CCc1c(C(=O)NC2(C)CS(=O)(=O)C2)nn2ccc(Oc3ncccc3OCC(F)(F)F)cc12` [Example 47, 3-Ethyl-N-(3-methyl-1,1-dioxidothietan-3-yl)-5-((3-(2,2,2-trifluoroethoxy)pyridin-2-yl)oxy)pyrazolo[1,5-a]pyridine-2-carboxamide], the IC50 was 257 nM.

`CN1C(C)(C)C(NC(=O)c2cc3cc(Oc4ncccc4OCC(F)(F)F)ccn3n2)CS1(=O)=O` (racemic) [Example 2, 5-((3-(2,2,2-Trifluoroethoxy)pyridin-2-yl)oxy)-N-(2,3,3-trimethyl-1,1-dioxidoisothiazolidin-4-yl)pyrazolo[1,5-a]pyridine-2-carboxamide] gave a half-maximal inhibitory concentration (IC50) of 787 nM.

The compound `CC1(NC(=O)c2nn3ccc(Oc4ncc(C#N)cc4OCC(F)(F)F)cc3c2Cl)CCS(=O)(=O)CC1` [Example 41, 3-Chloro-5-((5-cyano-3-(2,2,2-trifluoroethoxy)pyridin-2-yl)oxy)-N-(4-methyl-1,1-dioxidotetrahydro-2H-thiopyran-4-yl)pyrazolo[1,5-a]pyridine-2-carboxamide] came in with an IC50 of 5 nM.

With `O=C(NC1(CC(F)(F)F)CCS(=O)(=O)CC1)c1nc2cc(Oc3ncc(Cl)cc3OCC(F)(F)F)ccn2n1` [Example 65, 7-((5-Chloro-3-(2,2,2-trifluoroethoxy)pyridin-2-yl)oxy)-N-(1,1-dioxido-4-(2,2,2-trifluoroethyl)tetrahydro-2H-thiopyran-4-yl)-[1,2,4]triazolo[1,5-a]pyridine-2-carboxamide], the IC50 was 160 nM.

Take `CC1(NC(=O)c2nn3ccc(Oc4nccnc4OCC(F)F)cc3c2F)CCS(=O)(=O)CC1` [Example 32, 5-((3-(2,2-Difluoroethoxy)pyrazin-2-yl)oxy)-3-fluoro-N-(4-methyl-1,1-dioxidotetrahydro-2H-thiopyran-4-yl)pyrazolo[1,5-a]pyridine-2-carboxamide]: the IC50 was 10 nM.

With `CC1(NC(=O)c2cc3cc(Oc4ncc(F)cc4OCC(F)(F)F)ccn3n2)CS(=O)(=O)C1` [Example 17, 5-((5-Fluoro-3-(2,2,2-trifluoroethoxy)pyridin-2-yl)oxy)-N-(3-methyl-1,1-dioxidothietan-3-yl)pyrazolo[1,5-a]pyridine-2-carboxamide], the half-inhibitory concentration (IC50) came to 72 nM.

`C[C@@]1(NC(=O)c2nn3ccc(Oc4ncc(F)cc4OCC(F)(F)F)cc3c2F)CCS(=O)(=O)C1` [Example 29, (R)-3-Fluoro-5-((5-fluoro-3-(2,2,2-trifluoroethoxy)pyridin-2-yl)oxy)-N-(3-methyl-1,1-dioxidotetrahydrothiophen-3-yl)pyrazolo[1,5-a]pyridine-2-carboxamide] gave an IC50 of 277 nM.

Turning to `CC1(NC(=O)c2nn3ccc(Oc4ncc(Cl)cc4OCC(F)F)nc3c2F)CCS(=O)(=O)CC1` [Example 61, 5-((5-Chloro-3-(2,2-difluoroethoxy)pyridin-2-yl)oxy)-3-fluoro-N-(4-methyl-1,1-dioxidotetrahydro-2H-thiopyran-4-yl)pyrazolo[1,5-a]pyrimidine-2-carboxamide], the IC50 was 133 nM.

Consider `CC1(NC(=O)c2cc3cc(Oc4nccnc4OCC(F)F)ccn3n2)CCS(=O)(=O)CC1` [Example 9, 5-((3-(2,2-Difluoroethoxy)pyrazin-2-yl)oxy)-N-(4-methyl-1,1-dioxidotetrahydro-2H-thiopyran-4-yl)pyrazolo[1,5-a]pyridine-2-carboxamide], for which the IC50 was 2.3 nM.

In the case of `CC1(NC(=O)c2nn3ccc(Oc4ncc(F)cc4OCC(F)(F)F)cc3c2F)CCS(=O)(=O)CC1` [Example 36, 3-Fluoro-5-((5-fluoro-3-(2,2,2-trifluoroethoxy)pyridin-2-yl)oxy)-N-(4-methyl-1,1-dioxidotetrahydro-2H-thiopyran-4-yl)pyrazolo[1,5-a]pyridine-2-carboxamide], the IC50 came to 7.3 nM.

The compound `CC1(NC(=O)c2cc3c(F)c(Oc4ncc(F)cc4OCC(F)(F)F)ccn3n2)CCS(=O)(=O)CC1` [Example 56, 4-Fluoro-5-((5-fluoro-3-(2,2,2-trifluoroethoxy)pyridin-2-yl)oxy)-N-(4-methyl-1,1-dioxidotetrahydro-2H-thiopyran-4-yl)pyrazolo[1,5-a]pyridine-2-carboxamide] showed an IC50 of 20 nM.

In the case of `CC(O)c1cnc(Oc2ccn3nc(C(=O)NC4(C)CCS(=O)(=O)CC4)cc3c2)c(OCC(F)(F)F)c1` (single isomer, unassigned) [Example 44a, 5-((5-(1-Hydroxyethyl)-3-(2,2,2-trifluoroethoxy)pyridin-2-yl)oxy)-N-(4-methyl-1,1-dioxidotetrahydro-2H-thiopyran-4-yl)pyrazolo[1,5-a]pyridine-2-carboxamide], the IC50 amounted to 111 nM.

As to `CC1(NC(=O)c2cc3nc(OCc4ncc(Cl)cc4OCC(F)F)ccn3n2)CCS(=O)(=O)CC1` [Example 67, 5-((5-Chloro-3-(2,2-difluoroethoxy)pyridin-2-yl)methoxy)-N-(4-methyl-1,1-dioxidotetrahydro-2H-thiopyran-4-yl)pyrazolo[1,5-a]pyrimidine-2-carboxamide], the half-inhibitory concentration (IC50) worked out at 3.3 nM.
